Data taken from patent publication US20230365592A1 (Agios Pharmaceuticals, Inc., priority 2022, published 2023).

Biological target: T1, human PAH with the R408W mutation (Homo sapiens, UniProt P00439, R408W)
T1 construct: expressed in transfected cells
T1 sequence (P00439 1-452 R408W): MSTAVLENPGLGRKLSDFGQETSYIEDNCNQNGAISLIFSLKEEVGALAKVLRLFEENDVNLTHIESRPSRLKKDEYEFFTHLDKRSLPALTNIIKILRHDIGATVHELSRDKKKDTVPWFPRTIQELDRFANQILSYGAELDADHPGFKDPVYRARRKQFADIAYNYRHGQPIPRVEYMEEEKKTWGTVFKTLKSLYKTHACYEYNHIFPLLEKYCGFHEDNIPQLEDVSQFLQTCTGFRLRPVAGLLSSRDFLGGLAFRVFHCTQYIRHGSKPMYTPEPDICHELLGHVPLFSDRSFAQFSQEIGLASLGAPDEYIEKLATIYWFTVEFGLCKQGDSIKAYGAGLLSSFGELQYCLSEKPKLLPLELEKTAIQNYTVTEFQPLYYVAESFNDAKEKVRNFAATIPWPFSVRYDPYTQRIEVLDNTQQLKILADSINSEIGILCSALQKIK
Assay: Cell Based Phenylalanine Flux Assay;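 further: after compound treatment, cells received sepiapterin plus isotope-labelled Phenylalanine for 4 hours, then labelled Tyrosine in the medium was quantified, 10-point 2-fold dilution series run in duplicate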
Settings: A375 cells expressing human R408W PAH; 24 hrs compound incubation; 13C-Tyrosine by LC-MS; average where tested multiple times; read-out: AC50

Compound | AC50
O=C(c1nnc(-c2ccn(C(F)(F)F)n2)o1)N1CCc2[nH]cnc2[C@@H]1c1cc2ccccn2n1 [Example 1507, (R)-(4-(pyrazolo[1,5-a]pyridin-2-yl)-6,7-dihydro-1H-imidazo[4,5-c]pyridin-5(4H)-yl)(5-(1-(trifluoromethyl)-1H-pyrazol-3-yl)-1,3,4-oxadiazol-2-yl)methanone] | > 5000 nM
O=C(c1nnc(-c2ccn(C(F)(F)F)n2)o1)N1CCc2[nH]cnc2[C@H]1c1cc2c(C(F)(F)F)cccn2n1 [Example 1512, (S)-(5-(1-(trifluoromethyl)-1H-pyrazol-3-yl)-1,3,4-oxadiazol-2-yl)(4-(4-(trifluoromethyl)pyrazolo[1,5-a]pyridin-2-yl)-6,7-dihydro-1H-imidazo[4,5-c]pyridin-5(4H)-yl)methanone] | < 500 nM
O=C(c1nnc(-c2ccn(C(F)(F)F)n2)o1)N1CCc2[nH]cnc2[C@@H]1c1cc2c(C(F)(F)F)cccn2n1 [Example 1513, (R)-(5-(1-(trifluoromethyl)-1H-pyrazol-3-yl)-1,3,4-oxadiazol-2-yl)(4-(4-(trifluoromethyl)pyrazolo[1,5-a]pyridin-2-yl)-6,7-dihydro-1H-imidazo[4,5-c]pyridin-5(4H)-yl)methanone] | 1000 to 5000 nM
O=C(c1nnc(C2CCC2)o1)N1CCc2[nH]cnc2[C@H]1c1cc2ccccn2n1 [Example 1514, (S)-(5-cyclobutyl-1,3,4-oxadiazol-2-yl)(4-(pyrazolo[1,5-a]pyridin-2-yl)-6,7-dihydro-1H-imidazo[4,5-c]pyridin-5(4H)-yl)methanone] | < 500 nM
O=C(c1nnc(C2CCC2)o1)N1CCc2[nH]cnc2[C@@H]1c1cc2c(C(F)F)cccn2n1 [Example 1521, (R)-(5-cyclobutyl-1,3,4-oxadiazol-2-yl)(4-(4-(difluoromethyl)pyrazolo[1,5-a]pyridin-2-yl)-6,7-dihydro-1H-imidazo[4,5-c]pyridin-5(4H)-yl)methanone] | 1000 to 5000 nM
O=C(c1nnc(-c2cccnc2)o1)N1CCc2[nH]cnc2[C@H]1c1cc2cccc(F)n2n1 [Example 1522, (S)-(4-(7-fluoropyrazolo[1,5-a]pyridin-2-yl)-6,7-dihydro-1H-imidazo[4,5-c]pyridin-5(4H)-yl)(5-(pyridin-3-yl)-1,3,4-oxadiazol-2-yl)methanone] | < 500 nM
O=C(c1nnc(-c2cccnc2)o1)N1CCc2[nH]cnc2[C@@H]1c1cc2cccc(F)n2n1 [Example 1523, (R)-(4-(7-fluoropyrazolo[1,5-a]pyridin-2-yl)-6,7-dihydro-1H-imidazo[4,5-c]pyridin-5(4H)-yl)(5-(pyridin-3-yl)-1,3,4-oxadiazol-2-yl)methanone] | > 5000 nM
COc1ccc(-c2nnc(C(=O)N3CCc4[nH]cnc4[C@@H]3c3cc4cccc(F)n4n3)o2)nc1 [Example 1524, (R)-(4-(7-fluoropyrazolo[1,5-a]pyridin-2-yl)-6,7-dihydro-1H-imidazo[4,5-c]pyridin-5(4H)-yl)(5-(5-methoxypyridin-2-yl)-1,3,4-oxadiazol-2-yl)methanone] | > 5000 nM
COc1ccc(-c2nnc(C(=O)N3CCc4[nH]cnc4[C@H]3c3cc4cccc(F)n4n3)o2)nc1 [Example 1525, (S)-(4-(7-fluoropyrazolo[1,5-a]pyridin-2-yl)-6,7-dihydro-1H-imidazo[4,5-c]pyridin-5(4H)-yl)(5-(5-methoxypyridin-2-yl)-1,3,4-oxadiazol-2-yl)methanone] | 500 to 1000 nM
Cn1nccc1-c1nnc(C(=O)N2CCc3[nH]cnc3[C@@H]2c2cc3cccc(F)n3n2)o1 [Example 1527, (R)-(4-(7-fluoropyrazolo[1,5-a]pyridin-2-yl)-6,7-dihydro-1H-imidazo[4,5-c]pyridin-5(4H)-yl)(5-(1-methyl-1H-pyrazol-5-yl)-1,3,4-oxadiazol-2-yl)methanone] | > 5000 nM
Cc1cnn(C)c1-c1nnc(C(=O)N2CCc3[nH]cnc3[C@H]2c2cc3cccc(F)n3n2)o1 [Example 1528, (S)-(5-(1,4-dimethyl-1H-pyrazol-5-yl)-1,3,4-oxadiazol-2-yl)(4-(7-fluoropyrazolo[1,5-a]pyridin-2-yl)-6,7-dihydro-1H-imidazo[4,5-c]pyridin-5(4H)-yl)methanone] | < 500 nM
Cc1cc(-c2nnc(C(=O)N3CCc4[nH]cnc4[C@@H]3c3cc4c(C(F)F)cccn4n3)o2)nn1C [Example 1530, (R)-(4-(4-(difluoromethyl)pyrazolo[1,5-a]pyridin-2-yl)-6,7-dihydro-1H-imidazo(4,5-c]pyridin-5(4H)-yl)(5-(1,5-dimethyl-1H-pyrazol-3-yl)-1,3,4-oxadiazol-2-yl)methanone] | > 5000 nM
Cc1cc(-c2nnc(C(=O)N3CCc4[nH]cnc4[C@H]3c3cc4c(C(F)F)cccn4n3)o2)nn1C [Example 1531, (S)-(4-(4-(difluoromethyl)pyrazolo[1,5-a]pyridin-2-yl)-6,7-dihydro-1H-imidazo[4,5-c]pyridin-5(4H)-yl)(5-(1,5-dimethyl-1H-pyrazol-3-yl)-1,3,4-oxadiazol-2-yl)methanone] | < 500 nM
Cn1nccc1-c1nnc(C(=O)N2CCc3[nH]cnc3[C@H]2c2cc3c(C(F)F)cccn3n2)o1 [Example 1532, (S)-(4-(4-(difluoromethyl)pyrazolo[1,5-a]pyridin-2-yl)-6,7-dihydro-1H-imidazo[4,5-c]pyridin-5(4H)-yl)(5-(1-methyl-1H-pyrazol-5-yl)-1,3,4-oxadiazol-2-yl)methanone] | < 500 nM
O=C(c1nnc(-c2cnccn2)o1)N1CCc2[nH]cnc2[C@@H]1c1cc2cccc(C(F)F)n2n1 [Example 1534, (R)-(4-(7-(difluoromethyl)pyrazolo[1,5-a]pyridin-2-yl)-6,7-dihydro-1H-imidazo[4,5-c]pyridin-5(4H)-yl)(5-(pyrazin-2-yl)-1,3,4-oxadiazol-2-yl)methanone] | 1000 to 5000 nM
Cc1cc(-c2nnc(C(=O)N3CCc4[nH]cnc4[C@H]3c3cc4cccc(C(F)F)n4n3)o2)nn1C [Example 1537, (S)-(4-(7-(difluoromethyl)pyrazolo[1,5-a]pyridin-2-yl)-6,7-dihydro-1H-imidazo[4,5-c]pyridin-5(4H)-yl)(5-(1,5-dimethyl-1H-pyrazol-3-yl)-1,3,4-oxadiazol-2-yl)methanone] | 500 to 1000 nM
O=C(c1nnc(-c2cnn(C(F)(F)F)c2)o1)N1CCc2[nH]cnc2[C@H]1c1cc2c(C(F)(F)F)cccn2n1 [Example 1538, (S)-(5-(1-(trifluoromethyl)-1H-pyrazol-4-yl)-1,3,4-oxadiazol-2-yl)(4-(4-(trifluoromethyl)pyrazolo[1,5-a]pyridin-2-yl)-6,7-dihydro-1H-imidazo[4,5-c]pyridin-5(4H)-yl)methanone] | 500 to 1000 nM
O=C(c1nnc(-c2cnn(C(F)(F)F)c2)o1)N1CCc2[nH]cnc2[C@H]1c1cc2c(F)cccn2n1 [Example 1540, (S)-(4-(4-fluoropyrazolo[1,5-a]pyridin-2-yl)-6,7-dihydro-1H-imidazo[4,5-c]pyridin-5(4H)-yl)(5-(1-(trifluoromethyl)-1H-pyrazol-4-yl)-1,3,4-oxadiazol-2-yl)methanone] | 500 to 1000 nM
O=C(c1nnc(-c2ccn(C(F)(F)F)n2)o1)N1CCc2[nH]cnc2[C@H]1c1cc2cccc(C(F)(F)F)n2n1 [Example 1542, (S)-(5-(1-(trifluoromethyl)-1H-pyrazol-3-yl)-1,3,4-oxadiazol-2-yl)(4-(7-(trifluoromethyl)pyrazolo[1,5-a]pyridin-2-yl)-6,7-dihydro-1H-imidazo[4,5-c]pyridin-5(4H)-yl)methanone] | 500 to 1000 nM
O=C(c1nnc(-c2ccn(C(F)(F)F)n2)o1)N1CCc2[nH]cnc2[C@H]1c1cc2cccc(C(F)F)n2n1 [Example 1544, (S)-(4-(7-(difluoromethyl)pyrazolo[1,5-a]pyridin-2-yl)-6,7-dihydro-1H-imidazo[4,5-c]pyridin-5(4H)-yl)(5-(1-(trifluoromethyl)-1H-pyrazol-3-yl)-1,3,4-oxadiazol-2-yl)methanone] | < 500 nM
O=C(c1nnc(-c2ccn(C(F)(F)F)n2)o1)N1CCc2[nH]cnc2[C@@H]1c1cc2cccc(C(F)F)n2n1 [Example 1545, (R)-(4-(7-(difluoromethyl)pyrazolo[1,5-a]pyridin-2-yl)-6,7-dihydro-1H-imidazo[4,5-c]pyridin-5(4H)-yl)(5-(1-(trifluoromethyl)-1H-pyrazol-3-yl)-1,3,4-oxadiazol-2-yl)methanone] | 1000 to 5000 nM
CN(C)Cc1ccc2c(C(=O)N3CCc4[nH]cnc4[C@H]3c3cc4c(C(F)(F)F)cccn4n3)cnn2c1 [Example 1546, (S)-(6-((dimethylamino)methyl)pyrazolo[1,5-a]pyridin-3-yl)(4-(4-(trifluoromethyl)pyrazolo[1,5-a]pyridin-2-yl)-6,7-dihydro-1H-imidazo[4,5-c]pyridin-5(4H)-yl)methanone] | 500 to 1000 nM
CN(C)Cc1ccc2c(C(=O)N3CCc4[nH]cnc4[C@@H]3c3cc4c(C(F)(F)F)cccn4n3)cnn2c1 [Example 1547, (R)-(6-((dimethylamino)methyl)pyrazolo[1,5-a]pyridin-3-yl)(4-(4-(trifluoromethyl)pyrazolo[1,5-a]pyridin-2-yl)-6,7-dihydro-1H-imidazo[4,5-c]pyridin-5(4H)-yl)methanone] | > 5000 nM
COCc1ccc2c(C(=O)N3CCc4[nH]cnc4[C@H]3c3cc4c(C(F)(F)F)cccn4n3)cnn2c1 [Example 1548, (S)-(6-(methoxymethyl)pyrazolo[1,5-a]pyridin-3-yl)(4-(4-(trifluoromethyl)pyrazolo[1,5-a]pyridin-2-yl)-6,7-dihydro-1H-imidazo[4,5-c]pyridin-5(4H)-yl)methanone] | 500 to 1000 nM
